US20250144067A1, “PERSONALIZED STARVATION THERAPY FOR CANCER” (Faeth Therapeutics, Inc., priority 2021, published 2025)
Like-named read-outs stand apart in the source and are kept apart here.

Tests used:
[1] = system: NCI-H292 lung cancer cells; test: FDA drug screening, complete media vs cholesterol-free media with simvastatin (TABLE 2); assay type: cell-based, human
[2] = system: NCI-H292 lung cancer cells; test: FDA drug screening, complete media vs cholesterol-free media without statin (TABLE 1); assay type: cell-based, human
[3] = NCI-H292 cells, drug in cholesterol-free media with simvastatin 0.04 μM
[4] = NCI-H292 cells, drug in complete media
[5] = complete media vs cholesterol-free media + simvastatin (0.04 μM), >0 enhanced anti-cancer activity, about 0 neutral, <0 antagonist
[6] = NCI-H292 cells, cholesterol-free media without statin
[7] = complete vs cholesterol-free media, greater than 0 enhanced anti-cancer activity, about 0 neutral, below 0 antagonists
[8] = Complete minus Cholesterol-free, greater than 0 enhanced anti-cancer activity, about 0 neutral, below 0 antagonist
[9] = NCI-H292 cells, FDA drug library screen, cholesterol-free media without statin
[10] = NCI-H292 cells, FDA drug library screen, complete media
[11] = NCI-H292 cells, FDA library drug in cholesterol-free media with simvastatin 0.04 μM
[12] = NCI-H292 cells, FDA library drug in complete media
[13] = Complete minus Cholesterol-free, >0 enhanced anti-cancer activity, about 0 neutral, <0 antagonist
[14] = NCI-H292 cells, cholesterol-free media without statin, FDA drug library screen
[15] = NCI-H292 cells, complete media, FDA drug library screen
[16] = NCI-H292 cells, cholesterol-free media with simvastatin 0.04 μM, cell growth value in FDA drug screen
[17] = NCI-H292 cells, complete media, cell growth value in FDA drug screen
[18] = complete media minus cholesterol-free media + simvastatin, >0 enhanced anti-cancer activity, about 0 neutral, <0 antagonist
[19] = complete vs cholesterol-free media, >0 enhanced anti-cancer activity, about 0 neutral, <0 antagonist
[20] = NCI-H292 cells, FDA drug library screen, cholesterol-free media with simvastatin 0.04 μM

Compound: C[C@]12CC[C@@H]3c4ccc(OC(=O)c5ccccc5)cc4CC[C@H]3[C@@H]1CC[C@@H]2O [Estradiol benzoate]
- Cholesterol-free media + simvastatin (0.04 μM) [1, 3]: 1.387
- Complete Media [1, 4]: 1.134
- Difference [1, 5]: −0.25
- Cholesterol-free [2, 6]: 1.285
- Complete ([2]; NCI-H292 cells, complete media): 0.9221
- Difference [2, 7]: −0.36

Compound: Cc1c(Cl)c(C)[n+]([O-])c(Cl)c1-c1noc(-c2cc(O)c(O)c([N+](=O)[O-])c2)n1 [Opicapone]
- Cholesterol-free media + simvastatin (0.04 μM) ([1]; NCI-H292 cells, cholesterol-free media with simvastatin 0.04 μM, FDA drug library screen (TABLE 2)): 0.9346
- Complete Media ([1]; NCI-H292 cells, complete media, FDA drug library screen (TABLE 2)): 0.8971
- Difference ([1]; complete media minus cholesterol-free media + simvastatin (0.04 μM), >0 enhanced anti-cancer activity, about 0 neutral, <0 antagonist): −0.04
- Difference [2, 8]: −0.13
- Cholesterol-free [2, 9]: 0.8861
- Complete [2, 10]: 0.7591

Compound: Abemaciclib (methanesulfonate)
- Cholesterol-free media + simvastatin (0.04 μM) [1, 11]: 0.9262
- Complete Media [1, 12]: 0.6131
- Difference [1, 5]: −0.31
- Difference [2, 13]: −0.03
- Cholesterol-free [2, 14]: 0.6853
- Complete [2, 15]: 0.6534

Compound: CC(C)n1nccc1-c1ncccc1COc1cccc(O)c1C=O [Voxelotor]
- Cholesterol-free media + simvastatin (0.04 μM) [1, 11]: 1.853
- Complete Media [1, 12]: 1.475
- Difference [1, 5]: −0.38
- Cholesterol-free [2, 6]: 1.146
- Complete ([2]; NCI-H292 cells, complete media): 0.7013
- Difference [2, 7]: −0.44

Compound: CC(C)N(CCCCOCC(=O)NS(C)(=O)=O)c1cnc(-c2ccccc2)c(-c2ccccc2)n1 [Selexipag]
- Cholesterol-free media + simvastatin (0.04 μM) [1, 16]: 0.9295
- Complete Media [1, 17]: 1.013
- Difference [1, 18]: 0.08
- Cholesterol-free [2, 14]: 0.7206
- Complete [2, 15]: 1.028
- Difference [2, 19]: 0.31

Compound: CCCCC(CC)COC(=O)c1ccccc1O (stereo not drawn) [Octisalate]
- Cholesterol-free media + simvastatin (0.04 μM) [1, 20]: 0.992
- Complete Media [1, 10]: 0.8834
- Difference [1, 5]: −0.11
- Difference [2, 13]: −0.04
- Cholesterol-free [2, 14]: 2.188
- Complete [2, 15]: 2.15

Compound: C=CCC(C(=O)NC(N)=O)C(C)C (stereo not drawn) [Apronal]
- Cholesterol-free media + simvastatin (0.04 μM) [1, 3]: 1.688
- Complete Media [1, 4]: 1.479
- Difference ([1]; complete media vs cholesterol-free media + simvastatin (0.04 μM), […]): −0.21
- Cholesterol-free [2, 14]: 1.287
- Complete [2, 15]: 1.458
- Difference ([2]; complete vs cholesterol-free media, […]): 0.17

Compound: CCN(CC)CCCC(C)Nc1ccnc2cc(Cl)ccc12 (stereo not drawn) [Chloroquine]
- Cholesterol-free media + simvastatin (0.04 μM) [1]: 2.192
- Complete Media [1]: 0.9997
- Difference [1]: −1.19
- Cholesterol-free [2]: 1.226
- Complete [2]: 0.9181
- Difference [2]: −0.31

Compound: O=P(O)(O)C(O)(Cc1cccnc1)P(=O)(O)O [Risedronate (sodium)]
- Cholesterol-free media + simvastatin (0.04 μM) [1, 16]: 0.8847
- Complete Media [1, 17]: 0.9961
- Difference [1, 18]: 0.11
- Difference [2, 13]: −0.30
- Cholesterol-free [2, 6]: 1.022
- Complete ([2]; NCI-H292 cells, complete media): 0.7264

Compound: CC(=O)Oc1cc2c(s1)CCN(C(C(=O)C1CC1)c1ccccc1F)C2 (stereo not drawn) [Prasugrel]
- Cholesterol-free media + simvastatin (0.04 μM) [1, 20]: 1.012
- Complete Media [1, 10]: 0.9091
- Difference [1, 5]: −0.10
- Cholesterol-free [2, 14]: 1.483
- Complete [2, 15]: 1.769
- Difference [2, 19]: 0.29

Compound: CC(C)(Oc1ccc(Cl)cc1)C(=O)O [Clofibric acid]
- Cholesterol-free media + simvastatin (0.04 μM) [1, 16]: 1.015
- Complete Media [1, 17]: 1.071
- Difference [1, 18]: 0.06
- Difference [2, 8]: −0.18
- Cholesterol-free [2, 9]: 0.9932
- Complete [2, 10]: 0.8121

Compound: Tosufloxacin (tosylate hydrate)
- Cholesterol-free media + simvastatin (0.04 μM) [1, 20]: 1.004
- Complete Media [1, 10]: 0.9272
- Difference [1, 5]: −0.08
- Cholesterol-free [2, 6]: 1.21
- Complete ([2]; NCI-H292 cells, complete media): 0.8679
- Difference [2, 7]: −0.34
